These results are taken from patent publication US9499550B2 (BRISTOL-MYERS SQUIBB COMPANY, priority 2012, dated 2016).

The subject of experiment [1] is HCV genotype 1a (H77 strain) replicon in HUH-7 cells. Description: HCV replicon luciferase reporter assay, genotype 1a. It is filed as cell-based. The note with it: Hepatitis C virus, Huh-7, 72 h, HCV genotype 1a replicon luciferase, 3 days incubation, read-out: LE_1a (EC50, range). The essentials:
(§1)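 Replicon inhibition for both genotypes was measured as Renilla luciferase signal (EnduRen, 7.5 μM final, 2 h) after 3-day, 37° C exposure of replicon-bearing HUH-7 cells in 4% FCS DMEM, 0.5% DMSO. The 1b construct carries S1179I; the 1a H77 construct carries P1496L and S2204I. Twenty-point, 3-fold dilutions were fitted four-parametrically for EC50, and CC50 was taken from multiplexed Cell Titer-Blue.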

Experiment [2] relates to HCV genotype 1b (Con1) replicon in HUH-7 cells. Description: HCV replicon luciferase reporter assay, genotype 1b. Type of experiment: cell-based. The conditions noted are these: Hepatitis C virus, Huh-7, 72 h, HCV genotype 1b replicon luciferase, 3 days incubation, read-out: LE_1b (EC50, range). In a few lines:
as §1

Regarding `CC[C@@H]1C[C@@H](C)CC/C=C\[C@@H]2C[C@@]2(C(=O)NS(=O)(=O)C2CC2)NC(=O)[C@@H]2C[C@@H](Oc3nccc4cc(OC)c(F)cc34)CN2C(=O)[C@H]1NC(=O)OC(C)(C)C(C)(F)F` [Compound 5472, 3,3-difluoro-2-methylbutan-2-yl((2R,6S,7R,9S,13aS,14aR,16aS,Z)-14a-((cyclopropylsulfonyl)carbamoyl)-7-ethyl-2-((7-fluoro-6-methoxyisoquinolin-1-yl)oxy)-9-methyl-5,16-dioxo-1,2,3,5,6,7,8,9,10,11,13a,14,14a,15,16,16a-hexadecahydrocyclopropa[e]pyrrolo[1,2-a][1,4]diazacyclopentadecin-6-yl)carbamate], the EC50 in experiment [1] and in experiment [2] was 1.01 to 5 nM throughout.
In the case of `CC[C@@H]1C[C@H](C)CC/C=C\[C@@H]2C[C@@]2(C(=O)NS(=O)(=O)C2CC2)NC(=O)[C@@H]2C[C@@H](Oc3nccc4cc(OC)c(F)cc34)CN2C(=O)[C@H]1NC(=O)OC(C)(C)C(C)(F)F` [Compound 5473, 3,3-difluoro-2-methylbutan-2-yl((2R,6S,7R,9R,13aS,14aR,16aS,Z)-14a-((cyclopropylsulfonyl)carbamoyl)-7-ethyl-2-((7-fluoro-6-methoxyisoquinolin-1-yl)oxy)-9-methyl-5,16-dioxo-1,2,3,5,6,7,8,9,10,11,13a,14,14a,15,16,16a-hexadecahydrocyclopropa[e]pyrrolo[1,2-a][1,4]diazacyclopentadecin-6-yl)carbamate], the values for the concentration giving a half-maximal response (EC50) in experiment [1] and in experiment [2] were 1.01 to 5 nM and 0.1 to 0.5 nM, respectively.
For the compound `COc1ccc2c(O[C@@H]3C[C@H]4C(=O)N[C@]5(C(=O)NS(=O)(=O)C6CC6)C[C@H]5/C=C\CC[C@H](C)C[C@@H](C)[C@H](NC(=O)OC(C)(C)C(C)(F)F)C(=O)N4C3)nc(-c3ccc(OC(C)C)cn3)cc2c1` [Compound 5474, 3,3-difluoro-2-methylbutan-2-yl((2R,6S,7R,9S,13aS,14aR,16aS,Z)-14a-((cyclopropylsulfonyl)carbamoyl)-2-((3-(5-isopropoxypyridin-2-yl)-6-methoxyisoquinolin-1-yl)oxy)-7,9-dimethyl-5,16-dioxo-1,2,3,5,6,7,8,9,10,11,13a,14,14a,15,16,16a-hexadecahydrocyclopropa[e]pyrrolo[1,2-a][1,4]diazacyclopentadecin-6-yl)carbamate], the EC50 in experiment [1] and in experiment [2] was 1.01 to 5 nM each time.
With `COc1ccc2c(O[C@@H]3C[C@H]4C(=O)N[C@]5(C(=O)NS(=O)(=O)C6CC6)C[C@H]5/C=C\CC[C@@H](C)C[C@@H](C)[C@H](NC(=O)OC(C)(C)C(C)(F)F)C(=O)N4C3)nc(-c3ccc(OC(C)C)cn3)cc2c1` [Compound 5475, 3,3-difluoro-2-methylbutan-2-yl((2R,6S,7R,9R,13aS,14aR,16aS,Z)-14a-((cyclopropylsulfonyl)carbamoyl)-2-((3-(5-isopropoxypyridin-2-yl)-6-methoxyisoquinolin-1-yl)oxy)-7,9-dimethyl-5,16-dioxo-1,2,3,5,6,7,8,9,10,11,13a,14,14a,15,16,16a-hexadecahydrocyclopropa[e]pyrrolo[1,2-a][1,4]diazacyclopentadecin-6-yl)carbamate], the EC50 in experiment [1] and in experiment [2] was 0.51 to 1 nM each time.
As for `COc1ccc2c(O[C@@H]3C[C@H]4C(=O)N[C@]5(C(=O)NS(=O)(=O)C6(C)CC6)C[C@H]5/C=C\CC[C@H](C)C[C@@H](C)[C@H](NC(=O)OC(C)(C)C(C)(F)F)C(=O)N4C3)nc(-c3ccc(OC(C)C)cn3)cc2c1` [Compound 5476, 3,3-difluoro-2-methylbutan-2-yl((2R,6S,7R,9S,13aS,14aR,16aS,Z)-2-((3-(5-isopropoxypyridin-2-yl)-6-methoxyisoquinolin-1-yl)oxy)-7,9-dimethyl-14a-(((1-methylcyclopropyl)sulfonyl)carbamoyl)-5,16-dioxo-1,2,3,5,6,7,8,9,10,11,13a,14,14a,15,16,16a-hexadecahydrocyclopropa[e]pyrrolo[1,2-a][1,4]diazacyclopentadecin-6-yl)carbamate], the EC50 in experiment [1] was 5.01 to 35 nM; in experiment [2] it was 1.01 to 5 nM.
With `COc1ccc2c(O[C@@H]3C[C@H]4C(=O)N[C@]5(C(=O)NS(=O)(=O)C6(C)CC6)C[C@H]5/C=C\CC[C@@H](C)C[C@@H](C)[C@H](NC(=O)OC(C)(C)C(C)(F)F)C(=O)N4C3)nc(-c3ccc(OC(C)C)cn3)cc2c1` [Compound 5477, 3,3-difluoro-2-methylbutan-2-yl((2R,6S,7R,9R,13aS,14aR,16aS,Z)-2-((3-(5-isopropoxypyridin-2-yl)-6-methoxyisoquinolin-1-yl)oxy)-7,9-dimethyl-14a-(((1-methylcyclopropyl)sulfonyl)carbamoyl)-5,16-dioxo-1,2,3,5,6,7,8,9,10,11,13a,14,14a,15,16,16a-hexadecahydrocyclopropa[e]pyrrolo[1,2-a][1,4]diazacyclopentadecin-6-yl)carbamate], the EC50 in experiment [1] and in experiment [2] was 1.01 to 5 nM in each case.
In the case of `CC[C@@H]1C[C@H](C)CC/C=C\[C@@H]2C[C@@]2(C(=O)NS(=O)(=O)C2CC2)NC(=O)[C@@H]2C[C@@H](Oc3nc(-c4ccc(OC(C)C)cn4)cc4cc(OC)ccc34)CN2C(=O)[C@H]1NC(=O)OC(C)(C)C` [Compound 5479, tert-butyl ((2R,6S,7R,9R,13aS,14aR,16aS,Z)-14a-((cyclopropylsulfonyl)carbamoyl)-7-ethyl-2-((3-(5-isopropoxypyridin-2-yl)-6-methoxyisoquinolin-1-yl)oxy)-9-methyl-5,16-dioxo-1,2,3,5,6,7,8,9,10,11,13a,14,14a,15,16,16a-hexadecahydrocyclopropa[e]pyrrolo[1,2-a][1,4]diazacyclopentadecin-6-yl)carbamate], the results for the EC50 in experiment [1] and in experiment [2] were 1.01 to 5 nM and 0.51 to 1 nM, respectively.
The corresponding values for `CC[C@@H]1C[C@H](C)CC/C=C\[C@@H]2C[C@@]2(C(=O)NS(=O)(=O)C2(C)CC2)NC(=O)[C@@H]2C[C@@H](Oc3nc(-c4ccc(OC(C)C)cn4)cc4cc(OC)ccc34)CN2C(=O)[C@H]1NC(=O)OC(C)(C)C` [Compound 5481, tert-butyl ((2R,6S,7R,9R,13aS,14aR,16aS,Z)-7-ethyl-2-((3-(5-isopropoxypyridin-2-yl)-6-methoxyisoquinolin-1-yl)oxy)-9-methyl-14a-(((1-methylcyclopropyl)sulfonyl)carbamoyl)-5,16-dioxo-1,2,3,5,6,7,8,9,10,11,13a,14,14a,15,16,16a-hexadecahydrocyclopropa[e]pyrrolo[1,2-a][1,4]diazacyclopentadecin-6-yl)carbamate] are 1.01 to 5 nM and 1.01 to 5 nM.
For the compound `CC[C@@H]1C[C@H](C)CC/C=C\[C@@H]2C[C@@]2(C(=O)NS(=O)(=O)C2CC2)NC(=O)[C@@H]2C[C@@H](Oc3nc(-c4ccc(OC(C)C)cn4)cc4cc(OC)ccc34)CN2C(=O)[C@H]1NC(=O)OC(C)(C)C(C)(F)F` [Compound 5483, 3,3-difluoro-2-methylbutan-2-yl((2R,6S,7R,9R,13aS,14aR,16aS,Z)-14a-((cyclopropylsulfonyl)carbamoyl)-7-ethyl-2-((3-(5-isopropoxypyridin-2-yl)-6-methoxyisoquinolin-1-yl)oxy)-9-methyl-5,16-dioxo-1,2,3,5,6,7,8,9,10,11,13a,14,14a,15,16,16a-hexadecahydrocyclopropa[e]pyrrolo[1,2-a][1,4]diazacyclopentadecin-6-yl)carbamate], the concentration giving a half-maximal response (EC50) in experiment [1] and in experiment [2] was 1.01 to 5 nM each time.
In the case of `CC[C@@H]1C[C@H](C)CC/C=C\[C@@H]2C[C@@]2(C(=O)NS(=O)(=O)C2CC2)NC(=O)[C@@H]2C[C@@H](Oc3nc(-c4ccc(OC(C)C)cn4)cc4cc(OC)ccc34)CN2C(=O)[C@H]1NC(=O)OC(C)(C)C(F)(F)F` [Compound 5485, 1,1,1-trifluoro-2-methylpropan-2-yl((2R,6S,7R,9R,13aS,14aR,16aS,Z)-14a-((cyclopropylsulfonyl)carbamoyl)-7-ethyl-2-((3-(5-isopropoxypyridin-2-yl)-6-methoxyisoquinolin-1-yl)oxy)-9-methyl-5,16-dioxo-1,2,3,5,6,7,8,9,10,11,13a,14,14a,15,16,16a-hexadecahydrocyclopropa[e]pyrrolo[1,2-a][1,4]diazacyclopentadecin-6-yl)carbamate], the EC50 in experiment [1] and in experiment [2] was 1.01 to 5 nM in each case.
Regarding `CC[C@@H]1C[C@H](C)CC/C=C\[C@@H]2C[C@@]2(C(=O)NS(=O)(=O)C2(C)CC2)NC(=O)[C@@H]2C[C@@H](Oc3nc(-c4ccc(OC(C)C)cn4)cc4cc(OC)ccc34)CN2C(=O)[C@H]1NC(=O)OC(C)(C)C(C)(F)F` [Compound 5487, 3,3-difluoro-2-methylbutan-2-yl((2R,6S,7R,9R,13aS,14aR,16aS,Z)-7-ethyl-2-((3-(5-isopropoxypyridin-2-yl)-6-methoxyisoquinolin-1-yl)oxy)-9-methyl-14a-(((1-methylcyclopropyl)sulfonyl)carbamoyl)-5,16-dioxo-1,2,3,5,6,7,8,9,10,11,13a,14,14a,15,16,16a-hexadecahydrocyclopropa[e]pyrrolo[1,2-a][1,4]diazacyclopentadecin-6-yl)carbamate], the EC50 in experiment [1] and in experiment [2] was 1.01 to 5 nM each time.
For `CC[C@@H]1C[C@H](C)CC/C=C\[C@@H]2C[C@@]2(C(=O)NS(=O)(=O)C2(C)CC2)NC(=O)[C@@H]2C[C@@H](Oc3nc(-c4ccc(OC(C)C)cn4)cc4cc(OC)ccc34)CN2C(=O)[C@H]1NC(=O)OC(C)(C)C(F)(F)F` [Compound 5489, 1,1,1-trifluoro-2-methylpropan-2-yl((2R,6S,7R,9R,13aS,14aR,16aS,Z)-7-ethyl-2-((3-(5-isopropoxypyridin-2-yl)-6-methoxyisoquinolin-1-yl)oxy)-9-methyl-14a-(((1-methylcyclopropyl)sulfonyl)carbamoyl)-5,16-dioxo-1,2,3,5,6,7,8,9,10,11,13a,14,14a,15,16,16a-hexadecahydrocyclopropa[e]pyrrolo[1,2-a][1,4]diazacyclopentadecin-6-yl)carbamate], the EC50 in experiment [1] and in experiment [2] was 1.01 to 5 nM throughout.
